Assays:
[1] = system: cholera toxin-induced intestinal hypersecretion; conditions: mouse, in vivo; for effect on cholera toxin-induced intestinal hypersecretion: iv, 1 mg/kg
antigen-induced diarrhea = experiment: Mouse antigen-induced diarrheal model; type: in vivo; conditions: Balb/c mice, OVA
Experimental: Balb/c female mice were used in this test. The animals were immunized through intraperitoneal administration of 50 μg of ovalbumin (OVA) and 1 mg of aluminium gel (alum), and after 2 weeks from the first immunization, they were again immunized under the same condition. […] The diarrheal condition was checked 1 hour after the OVA administration.

[2] = system: TNBS-induced chronic colitis; experiment: Rat TNBS-induced chronic colitis model; conditions: Wistar rats
[3] = system: restrictive stress-induced diarrhea; experiment: Rat stress-induced diarrheal model; type: in vivo; conditions: Wister rats
Experimental: Wister male rats were used in this test. The animals were restrained in individual restrictive cages for 4 hours and given stress thereby to have diarrhea. […] Each group consisted of 19 to 20 animals. The statistical pharmaceutical potency analysis of the test compound was attained as a significant chi-square test, and its multiplicity was corrected by Bonferroni multiple comparison.

T84 cells = experiment: Chloride-dependent short circuit current (Isc) in human intestinal epithelial cells, Ussing system; type: cell-based; conditions: for effect on forskolin-induced Isc increase: forskolin 10 μM; for effect on thapsigargin-induced continuous Isc increase / effect on transient Isc increase seen before the sustained Isc increase: thapsigargin 1 μM
Experimental: It is known that water secretion from epithelial cells is correlated with chloride ion secretion, and the effect to water secretion from epithelial cells may be evaluated through chloride-dependent current measurement.
T84 cells, a human colon epithelial cell-derived cell line, were purchased from American Type Culture Collection (ATCC, USA). T84 cells (3×10^5 cells/well) were cultured on a polyethylenic mesh insert (Transwell® by Corning, USA)) on a 6-well microplate for 10 to 12 days. As the culture medium, 5% bovine calf serum-containing DMEM/F-12 (Gibco, USA) was used. The cultured T84 cells were set in the sample chamber of an Ussing short-circuit current measuring system, and the chloride-dependent short circuit current (Isc) was measured. Isc was induced by adding thapsigargin (1 μM) or forskolin (10 μM) to the T84 cell monolayer specimen at its top on the membrane side thereof. […] In each test, the data obtained by DPC addition were taken as chloride-dependent Isc base line data, and the effect of each test compound was revised.

[4] = system: oxazolone-induced acute colitis; experiment: Rat oxazolone-induced acute colitis model; conditions: DA rats

Question: Which “effect on cholera toxin-induced intestinal hypersecretion” value [1] does the source give for `CN1C2CCCC1CC(NC(=O)c1nn(C)c3ccccc13)C2` (centres unmarked) [Gra, granisetron, reference compound] here?
Answer: effective

Question: With `CN(C)C(=O)C(CCN1CCC(O)(c2ccc(Cl)cc2)CC1)(c1ccccc1)c1ccccc1` [Lop, loperamide, reference compound] as the compound, how does the “effect on cholera toxin-induced intestinal hypersecretion” value [1] read?
Answer: effective

Question: `C[C@]12C=CC(=O)C=C1CC[C@@H]1[C@@H]2[C@@H](O)C[C@@]2(C)[C@H]1CC[C@]2(O)C(=O)CO` [Pred, prednisolone, reference compound] was tested. Which “effect on antigen-induced diarrhea (diarrheal symptom)” value (antigen-induced diarrhea; 10 mg/kg po 1 hour before OVA) did it give?
Answer: almost completely inhibited

Question: What does the source list for `O=C(O)c1cc(/N=N/c2ccc(S(=O)(=O)Nc3ccccn3)cc2)ccc1O` [SSZ, sulfasalazine, reference compound]?
Answer: effect on TNBS-induced colitis model ([2]; 100 mg/kg po once a day): showed a relieving effect; effect relative to that of the compound A (weaker) ([2]; TNBS colitis): 1/500

Question: For `Cc1cc(C)c(C(=O)Nc2ccc(-n3nc(C(F)(F)F)cc3C(F)(F)F)cc2)cn1` [compound A, 4,6-Dimethyl-4′-[3,5-bis(trifluoromethyl)-1H-pyrazol-1-yl]nicotinanilide], which “effect on incidence rate of restrictive stress-induced diarrhea” value ([3]; 10 mg/kg oral administration group) is on record?
Answer: significant inhibition

Question: And the “effect on incidence rate of restrictive stress-induced diarrhea” value ([3]; 1.0 or 10 mg/kg po 24 hours and 1 hour before 4 hours restraint)?
Answer: dose-dependently inhibited

Question: What about the “effect on incidence rate of antigen-induced diarrhea” value (antigen-induced diarrhea; 3 or 10 mg/kg po 1 hour before OVA) of the same compound?
Answer: dose-dependently inhibited

Question: What about the “effect on cholera toxin-induced intestinal hypersecretion (ileal loop weight per unit length)” value ([1]; po) of the same compound?
Answer: dose-dependently inhibited

Question: What about the “oral dose at which inhibition of cholera toxin-induced intestinal hypersecretion was significant” value ([1]; po) of the same compound?
Answer: ≥ 0.3 mg/kg

Question: And the “effect on forskolin-induced Isc increase” value (T84 cells)?
Answer: dose-dependently inhibited

Question: And the “effect on thapsigargin-induced continuous Isc increase” value (T84 cells)?
Answer: inhibited

Question: What about the “effect on transient Isc increase seen before the sustained Isc increase” value (T84 cells) of the same compound?
Answer: did not affect

Question: What about the “effect on diarrheal symptom” value ([4]; at least 0.1 mg/kg oral administration) of the same compound?
Answer: almost completely inhibited

Question: What about the “effect on MPO activity promotion” value ([4]; oral 0.1, 1.0 or 10 mg/kg) of the same compound?
Answer: MPO activity promotion inhibition

Question: What about the “effect on diarrheal symptom” value ([4]; oral 0.1, 1.0 or 10 mg/kg) of the same compound?
Answer: diarrheal symptom relief

Question: And the “effect on intestinal tissue weight increase” value ([4]; oral 0.1, 1.0 or 10 mg/kg)?
Answer: intestinal tissue weight increase inhibition

Question: What about the “effect on disease activity index” value ([4]; oral 0.1, 1.0 or 10 mg/kg, 24 hours after colitis onset) of the same compound?
Answer: significant improvement effect

Question: And the “dose for diarrhea-inhibiting effect relative to dose for colitis symptom relieving effect” value ([4]; oxazolone colitis)?
Answer: about 1/100

Question: And the “effect on MPO activity exacerbation” value ([2]; 0.3 mg/kg po once a day)?
Answer: inhibition of MPO activity exacerbation

Question: And the “effect on diarrheal symptom” value ([2]; 0.3 mg/kg po once a day)?
Answer: diarrheal symptom relief

Question: And the “effect on intestinal tissue weight increase” value ([2]; 0.3 mg/kg po once a day)?
Answer: inhibition of intestinal tissue weight increase

Question: And the “effect on disease activity index” value ([2]; 0.3 mg/kg po once a day, 15 days after colitis induction)?
Answer: significant improvement effect

Question: With `Clc1ccc(COC(Cn2ccnc2)c2ccc(Cl)cc2Cl)cc1` (centres unmarked) [econazole, reference compound] as the compound, how does the “effect on forskolin-induced Isc increase” value (T84 cells) read?
Answer: dose-dependently inhibited

Question: And the “effect on thapsigargin-induced continuous Isc increase” value (T84 cells)?
Answer: inhibited

Question: What about the “effect on transient Isc increase seen before the sustained Isc increase” value (T84 cells) of the same compound?
Answer: did not affect

From patent US20090131484A1, “PREVENTIVE OR REMEDY FOR BOWEL DISEASE” (ASTELLAS PHARMA INC, priority 2005, published 2009)
